Assay [1] concerns the target T1, Mitogen-activated protein kinase 14 (Homo sapiens, UniProt Q16539). Description: Displacement of […] form p38alpha after 30 mins by luminescence assay.
The target of assay [2] is T1, Mitogen-activated protein kinase 14. Description: Inhibition of p38alpha assessed as inhibition of [gamma-33P]ATP incorporation into substrate after 4 hrs by radiometric assay.
Assay [3] concerns the target T2, Aurora kinase A (Homo sapiens, UniProt O14965).
T2 sequence (O14965 whole entry): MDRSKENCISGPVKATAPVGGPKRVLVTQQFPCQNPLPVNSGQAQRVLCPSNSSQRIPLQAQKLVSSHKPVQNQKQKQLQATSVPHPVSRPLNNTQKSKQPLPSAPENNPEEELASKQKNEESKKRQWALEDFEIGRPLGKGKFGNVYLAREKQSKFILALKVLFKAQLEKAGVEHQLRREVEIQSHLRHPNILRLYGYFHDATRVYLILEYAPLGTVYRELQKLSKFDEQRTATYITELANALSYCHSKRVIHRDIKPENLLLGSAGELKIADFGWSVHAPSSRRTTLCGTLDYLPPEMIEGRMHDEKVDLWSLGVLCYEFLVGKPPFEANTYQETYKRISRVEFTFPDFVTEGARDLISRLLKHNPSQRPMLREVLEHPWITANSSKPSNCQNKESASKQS
Nature of the assay: Inhibition of Aurora A ATP-binding site assessed as inhibition of [gamma-33P]ATP incorporation into substrate by scintillation counting.

Assay [4] concerns the target T2, Aurora kinase A. Nature of the assay: Inhibition of Aurora A ATP-binding site.

T1 sequence (Q16539 whole entry): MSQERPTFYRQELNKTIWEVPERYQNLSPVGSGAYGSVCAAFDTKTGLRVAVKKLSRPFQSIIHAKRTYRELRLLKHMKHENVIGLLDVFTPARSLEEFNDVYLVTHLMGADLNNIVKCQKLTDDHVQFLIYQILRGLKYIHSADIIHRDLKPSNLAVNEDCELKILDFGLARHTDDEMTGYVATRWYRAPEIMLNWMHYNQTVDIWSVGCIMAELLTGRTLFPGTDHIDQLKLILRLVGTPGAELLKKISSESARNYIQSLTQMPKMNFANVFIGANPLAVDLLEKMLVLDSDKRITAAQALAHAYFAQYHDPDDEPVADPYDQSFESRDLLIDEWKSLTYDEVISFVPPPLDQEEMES

For orientation: EC50 means the concentration needed to bring the measured effect to its halfway point. Low readings indicate higher potency in that assay, high ones lower potency in that assay. Compound `CNC(=O)[C@H](Cc1ccc2c(c1)COC(C)(C)O2)Nc1nc(O)nc(-n2cnc3cc(C(=O)N4CCCc5ccccc54)ccc32)n1` displayed an EC50 in assay [1] of 5200 nM.

A word on the IC50: it is the concentration needed to halve the response being measured. On to `CONC(=O)c1ccc(C)c(Nc2nc(NCC3CCCC(CN)C3)nc(NC(C)C(C)(C)C)n2)c1` (stereo not drawn), for which, in assay [2], the IC50 was not above 2 nM.

As for `CONC(=O)c1ccc(C)c(Nc2nc(NCC3CCCC(CN)C3)nc(NC3CCCCC3)n2)c1` (stereo not drawn), the IC50 in assay [2] is not above 2 nM.

With `COc1ccccc1CCNc1nc(NC(Cc2c[nH]c3ncccc23)C(N)=O)nc(N(C)[C@@H](C)c2ccccc2)n1` (stereo partly drawn), the IC50 on Aurora kinase A [3] was 6.3 nM.

`CCOc1nc(N[C@@H](Cc2ccc3c(c2)COC(C)(C)O3)C(=O)NC)nc(-n2cnc3ccc(C(=O)N4CCCc5ccccc54)cc32)n1`: the EC50 in assay [1] is not above 8 nM.

On to `CONC(=O)c1ccc(C)c(Nc2nc(NCc3cccc(C)c3)nc(NC(C)C(C)(C)C)n2)c1` (stereo not drawn), for which the IC50 in assay [2] was found to be 15 nM.

In assay [1], `CCOc1nc(N[C@@H](Cc2ccc3c(c2)COC(C)(C)O3)C(=O)NC)nc(-n2cnc3cc(C(=O)N4CCCc5ccccc54)ccc32)n1` yielded an EC50 of 2700 nM. In other words, the single-digit micromolar range.

What is called Ki is the equilibrium dissociation constant of an inhibitor or competing ligand from its target. `Cc1cc(Nc2cc(N3CCN(CC(=O)O)CC3)nc(Sc3ccc(NC(=O)C4CC4)cc3)n2)n[nH]1`: the Ki at Aurora kinase A [4] is 20 nM.

The compound `CNC(=O)[C@H](Cc1ccc2c(c1)COC(C)(C)O2)Nc1nc(-n2cnc3ccc(C(=O)N4CCCc5ccccc54)cc32)nc(=O)[nH]1` returned an EC50 in assay [1] not above 7 nM.

As for `CCCCN(C)c1nc(NCCc2ccccc2OC)nc(NCCc2c[nH]c3ncccc23)n1`, on Aurora kinase A [3], the IC50 amounted to 1.2 nM.

Take `COc1ccccc1CCNc1nc(Nc2ccc3ncccc3c2)nc(NC(Cc2c[nH]c3ncccc23)C(N)=O)n1` (stereo not drawn): the half-inhibitory concentration (IC50) on Aurora kinase A [3] is 3.7 nM.

Take `CNc1nc(NCCc2ccccc2OC)nc(Nc2ccc3ncccc3c2)n1`: the IC50 at Aurora kinase A [3] amounted to 5.1 nM.

As for `CCCCN(C)c1nc(NCCc2ccccc2OC)nc(NC(Cc2c[nH]c3ncccc23)C(N)=O)n1` (stereo not drawn), at Aurora kinase A [3], the IC50 came to 3.8 nM.

Source of the values: ChEMBL document CHEMBL1212727, “Design, synthesis and selection of DNA-encoded small-molecule libraries” (Nat Chem Biol, 2009).
